The target of assay [1] is T1, Glucagon receptor (Rattus norvegicus, UniProt P30082). The experiment in a line: Effective concentration was determined in cAMP accumulation assay using isolated hepatocytes in the presence rolipram. Format: functional, cell-based. Particulars: hepatocyte; call rule not given here. For orientation: Changes in cAMP serve as a functional read-out for many G protein-coupled receptors.
Assay [2] deals with T1, Glucagon receptor. The experiment in a line: Binding affinity towards Glucagon receptor in rat liver plasma membranes by displacement of 125 I-labelled glucagon. The format is cell membranes.
Assay [3] deals with T1, Glucagon receptor. The experiment in a line: pA2 value against Glucagon Receptor. Particulars: read-out: pA2 (converted).

T1 sequence (P30082 whole entry): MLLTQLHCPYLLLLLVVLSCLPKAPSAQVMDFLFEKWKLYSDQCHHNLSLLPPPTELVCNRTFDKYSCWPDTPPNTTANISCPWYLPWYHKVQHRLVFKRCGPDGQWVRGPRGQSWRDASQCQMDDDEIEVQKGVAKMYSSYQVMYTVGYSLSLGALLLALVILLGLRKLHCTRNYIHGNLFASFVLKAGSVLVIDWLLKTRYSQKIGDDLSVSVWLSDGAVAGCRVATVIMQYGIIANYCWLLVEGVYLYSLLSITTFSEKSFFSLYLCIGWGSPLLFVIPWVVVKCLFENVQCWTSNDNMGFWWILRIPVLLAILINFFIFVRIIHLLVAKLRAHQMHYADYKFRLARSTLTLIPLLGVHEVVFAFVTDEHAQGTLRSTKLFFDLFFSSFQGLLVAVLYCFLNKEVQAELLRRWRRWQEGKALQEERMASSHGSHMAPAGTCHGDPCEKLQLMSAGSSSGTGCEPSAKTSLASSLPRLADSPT

Consider `CSCC[C@H](NC(=O)[C@H](CC(C)C)NC(=O)[C@H](Cc1c[nH]c2ccccc12)NC(=O)[C@H](CCC(N)=O)NC(=O)[C@@H](NC(=O)[C@H](Cc1ccccc1)NC(=O)[C@H](CC(=O)O)NC(=O)[C@H](CCC(N)=O)NC(=O)[C@H](C)NC(=O)[C@H](CCCN=C(N)N)NC(=O)[C@H](CCCN=C(N)N)NC(=O)[C@H](CO)NC(=O)[C@H](CC(=O)O)NC(=O)[C@H](CC(C)C)NC(=O)[C@H](Cc1ccc(O)cc1)NC(=O)[C@H](CCCCN)NC(=O)[C@H](CO)NC(=O)[C@H](Cc1ccc(O)cc1)NC(=O)[C@H](CCC(=O)O)NC(=O)[C@H](CO)NC(=O)[C@@H](NC(=O)[C@@H](NC(=O)CNC(=O)[C@H](CCC(N)=O)NC(=O)[C@@H](N)CO)[C@@H](C)O)[C@@H](C)O)C(C)C)C(=O)N[C@@H](CC(N)=O)C(=O)N[C@H](C(=O)O)[C@@H](C)O` (stereo in doubt; 13), for which the EC50 entry in assay [1] was “Not Active”.

Consider `CSCC[C@H](NC(=O)[C@H](CC(C)C)NC(=O)[C@H](Cc1c[nH]c2ccccc12)NC(=O)[C@H](CCC(N)=O)NC(=O)[C@@H](NC(=O)[C@H](Cc1ccccc1)NC(=O)[C@H](CC(=O)O)NC(=O)[C@H](CCC(N)=O)NC(=O)[C@H](C)NC(=O)[C@H](CCCN=C(N)N)NC(=O)[C@H](CCCN=C(N)N)NC(=O)[C@H](CO)NC(=O)[C@H](CC(=O)O)NC(=O)[C@H](CC(C)C)NC(=O)[C@H](Cc1ccc(O)cc1)NC(=O)[C@H](CCCCN)NC(=O)[C@H](CO)NC(=O)[C@H](Cc1ccc(O)cc1)NC(=O)[C@H](CC(=O)O)NC(=O)[C@H](CO)NC(=O)[C@@H](NC(=O)[C@@H](NC(=O)CNC(=O)[C@H](CCC(N)=O)NC(=O)[C@@H](N)CO)[C@@H](C)O)[C@@H](C)O)C(C)C)C(=O)N[C@@H](CC(N)=O)C(=O)N[C@H](C(=O)O)[C@@H](C)O`, for which, in assay [1], the EC50 result is listed as “Not Active”.

In the case of `CSCC[C@H](NC(=O)[C@H](CC(C)C)NC(=O)[C@H](Cc1c[nH]c2ccccc12)NC(=O)[C@H](CCC(N)=O)NC(=O)[C@@H](NC(=O)[C@H](Cc1ccccc1)NC(=O)[C@H](CC(=O)O)NC(=O)[C@H](CCC(N)=O)NC(=O)[C@H](C)NC(=O)[C@H](CCCN=C(N)N)NC(=O)[C@H](CCCN=C(N)N)NC(=O)[C@H](CO)NC(=O)[C@H](CC(=O)O)NC(=O)[C@H](CC(C)C)NC(=O)[C@H](Cc1ccc(O)cc1)NC(=O)[C@H](CCCCN)NC(=O)[C@H](CO)NC(=O)[C@H](Cc1ccc(O)cc1)NC(=O)[C@H](CC(=O)O)NC(=O)[C@H](CO)NC(=O)[C@@H](NC(=O)[C@@H](NC(=O)CNC(=O)[C@H](CCC(N)=O)NC(=O)[C@H](CO)NC(=O)[C@@H](N)Cc1c[nH]cn1)[C@@H](C)O)[C@@H](C)O)C(C)C)C(=O)N[C@@H](CC(N)=O)C(=O)N[C@H](C(N)=O)[C@@H](C)O`, in assay [2], the IC50 – broadly, the concentration that inhibits the measured activity by half – was determined as 0.512 µM. Also, the Kb in assay [3] is 0.501 µM. Further, the EC50 entry in assay [1] is reported as “Not Active”.

`CC(C)C[C@H](NC(=O)[C@H](Cc1ccc(O)cc1)NC(=O)[C@H](CCCCN)NC(=O)[C@H](CO)NC(=O)[C@H](Cc1ccc(O)cc1)NC(=O)[C@H](CC(=O)O)NC(=O)[C@H](CO)NC(=O)[C@@H](NC(=O)[C@@H](NC(=O)CNC(=O)[C@H](CCC(N)=O)NC(=O)[C@H](CO)NC(=O)[C@@H](N)Cc1c[nH]cn1)[C@@H](C)O)[C@@H](C)O)C(=O)N[C@@H](CC(=O)O)C(=O)N[C@@H](CO)C(=O)N[C@@H](CCCN=C(N)N)C(=O)N[C@@H](CCCN=C(N)N)C(=O)N[C@@H](C)C(=O)N[C@@H](CCC(N)=O)C(=O)N[C@@H](CC(=O)O)C(=O)N[C@@H](Cc1ccccc1)C(=O)N[C@H](C(=O)N[C@@H](CCC(N)=O)C(=O)N[C@@H](Cc1c[nH]c2ccccc12)C(=O)N[C@@H](CC(C)C)C(=O)N[C@@H](CCS)C(=O)N[C@@H](CC(N)=O)C(=O)N[C@H](C=O)[C@@H](C)O)C(C)C`: the EC50 result in assay [1] is listed as “Not Active”.

Turning to `CSCC[C@H](NC(=O)[C@H](CC(C)C)NC(=O)[C@H](Cc1c[nH]c2ccccc12)NC(=O)[C@H](CCC(N)=O)NC(=O)[C@@H](NC(=O)[C@H](Cc1ccccc1)NC(=O)[C@H](CC(=O)O)NC(=O)[C@H](CCC(N)=O)NC(=O)[C@H](C)NC(=O)[C@H](CCCN=C(N)N)NC(=O)[C@H](CCCN=C(N)N)NC(=O)[C@H](CO)NC(=O)[C@H](CC(=O)O)NC(=O)[C@H](CC(C)C)NC(=O)[C@H](Cc1ccc(O)cc1)NC(=O)[C@H](CCCCN)NC(=O)[C@H](CO)NC(=O)[C@H](Cc1ccc(O)cc1)NC(=O)[C@H](CCC(=O)O)NC(=O)[C@H](CO)NC(=O)[C@@H](NC(=O)[C@H](Cc1ccccc1)NC(=O)[C@@H](NC(=O)[C@H](CCC(N)=O)NC(=O)[C@@H](N)CO)[C@@H](C)O)[C@@H](C)O)C(C)C)C(=O)N[C@@H](CC(N)=O)C(=O)N[C@H](C(N)=O)[C@@H](C)O`, in assay [2], the IC50 stood at 0.052 µM. Moreover, the Kb in assay [3] was 0.891 µM.

Turning to `CSCC[C@H](NC(=O)[C@H](CC(C)C)NC(=O)[C@H](Cc1c[nH]c2ccccc12)NC(=O)[C@H](CCC(N)=O)NC(=O)[C@@H](NC(=O)[C@H](Cc1ccccc1)NC(=O)[C@H](CC(=O)O)NC(=O)[C@H](CCC(N)=O)NC(=O)[C@H](C)NC(=O)[C@H](CCCNC(=N)N)NC(=O)[C@H](CCCNC(=N)N)NC(=O)[C@H](CO)NC(=O)[C@H](CC(=O)O)NC(=O)[C@H](CC(C)C)NC(=O)[C@H](Cc1ccc(O)cc1)NC(=O)[C@H](CCCCN)NC(=O)[C@H](CO)NC(=O)[C@H](Cc1ccc(O)cc1)NC(=O)[C@H](CC(=O)O)NC(=O)[C@H](CO)NC(=O)[C@@H](NC(=O)[C@@H](NC(=O)CNC(=O)[C@H](CCC(N)=O)NC(=O)[C@@H](N)CO)[C@@H](C)O)[C@@H](C)O)C(C)C)C(=O)N[C@@H](CC(N)=O)C(=O)N[C@H](C(=O)O)[C@@H](C)O`, the IC50 in assay [2] was found to be 0.2 µM. Besides, the Kb in assay [3] is 0.708 µM.

For the molecule `CSCC[C@H](NC(=O)[C@H](CC(C)C)NC(=O)[C@H](Cc1c[nH]c2ccccc12)NC(=O)[C@H](CCC(N)=O)NC(=O)[C@@H](NC(=O)[C@H](Cc1ccccc1)NC(=O)[C@H](CC(=O)O)NC(=O)[C@H](CCC(N)=O)NC(=O)[C@H](C)NC(=O)[C@H](CCCN=C(N)N)NC(=O)[C@H](CCCN=C(N)N)NC(=O)[C@H](CO)NC(=O)[C@H](CC(=O)O)NC(=O)[C@H](CC(C)C)NC(=O)[C@H](Cc1ccc(O)cc1)NC(=O)[C@H](CCCCN)NC(=O)[C@H](CO)NC(=O)[C@H](Cc1ccc(O)cc1)NC(=O)[C@H](CCC(=O)O)NC(=O)[C@H](CO)NC(=O)[C@@H](NC(=O)[C@@H](NC(=O)CNC(=O)[C@H](CCC(N)=O)NC(=O)[C@@H](N)CO)[C@@H](C)O)[C@@H](C)O)C(C)C)C(=O)N[C@@H](CC(N)=O)C(=O)N[C@H](C(N)=O)[C@@H](C)O`, the EC50 entry in assay [1] is listed as “Not Active”.

Molecule `CSCC[C@H](NC(=O)[C@H](CC(C)C)NC(=O)[C@H](Cc1c[nH]c2ccccc12)NC(=O)[C@H](CCC(N)=O)NC(=O)[C@@H](NC(=O)[C@H](Cc1ccccc1)NC(=O)[C@H](CC(=O)O)NC(=O)[C@H](CCC(N)=O)NC(=O)[C@H](C)NC(=O)[C@H](CCCN=C(N)N)NC(=O)[C@H](CCCN=C(N)N)NC(=O)[C@H](CO)NC(=O)[C@H](CC(=O)O)NC(=O)[C@H](CC(C)C)NC(=O)[C@H](Cc1ccc(O)cc1)NC(=O)[C@H](CCCCN)NC(=O)[C@H](CO)NC(=O)[C@H](Cc1ccc(O)cc1)NC(=O)[C@H](CCC(=O)O)NC(=O)[C@H](CO)NC(=O)[C@@H](NC(=O)[C@@H](Cc1ccccc1)NC(=O)[C@@H](NC(=O)CNC(=O)[C@H](CCC(N)=O)NC(=O)[C@@H](N)CO)[C@@H](C)O)[C@@H](C)O)C(C)C)C(=O)N[C@@H](CC(N)=O)C(=O)N[C@H](C(N)=O)[C@@H](C)O` came in with an IC50 in assay [2] of 0.1 µM. Besides, in assay [3], the Kb was 0.501 µM.

Consider `CSCC[C@H](NC(=O)[C@H](CC(C)C)NC(=O)[C@H](Cc1c[nH]c2ccccc12)NC(=O)[C@H](CCC(N)=O)NC(=O)[C@@H](NC(=O)[C@H](Cc1ccccc1)NC(=O)[C@H](CC(=O)O)NC(=O)[C@H](CCC(N)=O)NC(=O)[C@H](C)NC(=O)[C@H](CCCN=C(N)N)NC(=O)[C@H](CCCN=C(N)N)NC(=O)[C@H](CO)NC(=O)[C@H](CC(=O)O)NC(=O)[C@H](CC(C)C)NC(=O)[C@H](Cc1ccc(O)cc1)NC(=O)[C@H](CCCCN)NC(=O)[C@H](CO)NC(=O)[C@H](Cc1ccc(O)cc1)NC(=O)[C@H](CCC(=O)O)NC(=O)[C@H](CO)NC(=O)[C@@H](NC(=O)[C@H](C)NC(=O)[C@@H](NC(=O)CNC(=O)[C@H](CCC(N)=O)NC(=O)[C@@H](N)CO)[C@@H](C)O)[C@@H](C)O)C(C)C)C(=O)N[C@@H](CC(N)=O)C(=O)N[C@H](C(N)=O)[C@@H](C)O`, for which the EC50 entry in assay [1] was “Not Active”.

Take `CSCC[C@H](NC(=O)[C@H](CC(C)C)NC(=O)[C@H](Cc1c[nH]c2ccccc12)NC(=O)[C@H](CCC(N)=O)NC(=O)[C@@H](NC(=O)[C@H](Cc1ccccc1)NC(=O)[C@H](CC(=O)O)NC(=O)[C@H](CCC(N)=O)NC(=O)[C@H](C)NC(=O)[C@H](CCCNC(=N)N)NC(=O)[C@H](CCCNC(=N)N)NC(=O)[C@H](CO)NC(=O)[C@H](CC(=O)O)NC(=O)[C@H](CC(C)C)NC(=O)[C@H](Cc1ccc(O)cc1)NC(=O)[C@H](CCCCN)NC(=O)[C@H](CO)NC(=O)[C@H](Cc1ccc(O)cc1)NC(=O)[C@H](CCC(=O)O)NC(=O)[C@H](CO)NC(=O)[C@@H](NC(=O)[C@H](CC(=O)O)NC(=O)[C@@H](NC(=O)CNC(=O)[C@H](CCC(N)=O)NC(=O)[C@@H](N)CO)[C@@H](C)O)[C@@H](C)O)C(C)C)C(=O)N[C@@H](CC(N)=O)C(=O)N[C@H](C(N)=O)[C@@H](C)O`: the IC50 in assay [2] turned out to be 2 µM. Further, the Kb in assay [3] is 0.501 µM.

`CSCC[C@H](NC(=O)[C@H](CC(C)C)NC(=O)[C@H](Cc1c[nH]c2ccccc12)NC(=O)[C@H](CCC(N)=O)NC(=O)[C@@H](NC(=O)[C@H](Cc1ccccc1)NC(=O)[C@H](CC(=O)O)NC(=O)[C@H](CCC(N)=O)NC(=O)[C@H](C)NC(=O)[C@H](CCCN=C(N)N)NC(=O)[C@H](CCCN=C(N)N)NC(=O)[C@H](CO)NC(=O)[C@H](CC(=O)O)NC(=O)[C@H](CC(C)C)NC(=O)[C@H](Cc1ccc(O)cc1)NC(=O)[C@H](CCCCN)NC(=O)[C@H](CO)NC(=O)[C@H](Cc1ccc(O)cc1)NC(=O)[C@H](CCC(=O)O)NC(=O)[C@H](CO)NC(=O)[C@@H](NC(=O)[C@H](CC(=O)O)NC(=O)[C@@H](NC(=O)CNC(=O)[C@H](CCC(N)=O)NC(=O)[C@@H](N)CO)[C@@H](C)O)[C@@H](C)O)C(C)C)C(=O)N[C@@H](CC(N)=O)C(=O)N[C@H](C(N)=O)[C@@H](C)O`: the EC50 result in assay [1] was “Not Active”.

Values taken from ChEMBL document CHEMBL1130110 (J Med Chem, 1997).
